{"source": "paper PMC6804997", "about": "(PLoS ONE, 2019)", "tested_on": "HK-2 cells", "experiment": "Western blot of myoglobin-stimulated HK-2 cells", "format": "cell-based, Human", "protocol": "Kidney tissue or cultured cell samples were sufficiently lysed in the mixture of RIPA buffer (50 mM Tris (pH7.4), 150 mM NaCl, 1% TritonX-100, 1% sodium deoxycholate, 0.1% SDS) containing 4% cocktail proteinase inhibitor (Roche, Switzerland) on ice. After centrifuged at 13,000 rpm for 15 min at 4°C, supernate of the homogenate were collected for protein quantification. Protein equivalent to 50 ug were loaded into 10–12% SDS-PAGE gels for electrophoretic separation, and then transferred to polyvinylidene difluoride (PVDF) membranes (0.2 μm, Bio-Rad Laboratories, Inc.). After protein blotting, membranes were blocks using 5% non-fat dried milk for 1h at room temperature, then probed with primary antibodies at 4°C overnight, and incubated with secondary antibodies for 1h at room temperature. […] Immunoblots were visualized with the Immobilon Western Chemiluminescent HRP Substrate (Millipore Corporation, Billerica, MA, United States) and measured with Bio-Rad Chemi Doc MP. […]", "data": [{"smiles": "Cc1nc(N(C)c2ccc(Oc3ccc(C(=O)NO)cn3)cc2)c2ccccc2n1", "note": "[F7, N-hydroxy-6-(4-(methyl(2-methylquinazolin-4-yl)amino)phenoxy)nicotinamide]", "values": [{"measurement": "HDAC6 expression in vitro", "value": "effectively inhibited"}, {"measurement": "inflammation in HK-2 cells (NF-κB pathway activation)", "value": "ameliorated"}]}]}
